The text below walks through data of US12233419B2, “Devices, systems, and methods for single cell bacteria analysis” (priority 2018, dated 2025).

{TAMRA} = 6-carboxytetramethylrhodamine (NHS ester) fluorophore; {FAM} = 6-carboxyfluorescein (6-FAM) fluorophore; {IBFQ} = Iowa Black FQ dark quencher; {IBRQ} = Iowa Black RQ dark quencher

Data set [1] has as its system E. coli (EC137). The experiment in a line: Single cell AST in adaptable microfluidic device. In kind it is cell-based. To be noted: for antibiotic response in polymicrobial sample: ampicillin 8 μg/mL, mixed with S. epidermidis or EC136. The text has this:
(§1) Taking advantage of microfluidic confinement, single cell AST can be performed phenotypically in the presence of antibiotics in the channel. Resistant strains can grow in the presence of the antibiotic while the antibiotic would inhibit the growth of susceptible strains (FIG. 1C). As the cross-section of the channels is compatible with the size of the pathogen, the bacterial growth is confined along the microchannel. The change in length of the bacteria in the channel over time is used to quantitatively measure the growth of the bacteria.
(§2) In embodiments, bacterial trapping channels of this disclosure are also capable of single cell AST by monitoring the phenotypic growth of the trapped bacteria in the channel. In control groups without antibiotics, the bacteria grew exponentially along the microchannels (FIG. 2B, E, H). […] Growth was measured by an increase in the length of the bacteria occupying the microchannel. The length was normalized according to the initial length for estimating the growth rate, to account for variation of the initial length. Comparison of the growth rate between the control group and the antibiotic group determined the susceptibility of the bacteria. […] Unless otherwise specified, this definition is applied throughout Part I of this disclosure.
(§3) E. coli, S. epidermidis, and M. bacteremicum were cultured in Mueller Hinton broth, Nutrient broth, and ATCC medium 1395, respectively. The bacteria were cultured to an optical density at 600 nm (OD600) around 0.2 (measured with Nanodrop 2000, Thermo Scientific) and diluted to 5×10^5 cfu/mL following the CLSI guideline. […] The concentration of oxacillin for S. epidermidis was 4 μg/mL. A 20 μl sample was loaded into the inlet of the microchannel. Culture medium was applied to immerse the whole device. The device was then loaded on a microscope (Leica DMI4000B) thermal stage for real-time monitoring (SensiCam QE, PCO) of the bacterial growth. The length of the bacteria occupying the microchannel was measured in ImageJ (imagej.nih.gov/ij/). To model the polymicrobial infection with different species, E. coli (EC137) and S. epidermidis were cultured to OD600 around 0.2, mixed at ratio of 1:1, and diluted to a final concentration of 1×10^6 cfu/mL with and without ampicillin (8 μg/mL). To mimic the polymicrobial infection with different strains, E. coli (EC137 and EC136) were mixed at a ratio of 10:1 and diluted to a final concentration of 5×10^6 cfu/mL with and without ampicillin. In this embodiment, the antibiotic resistance was determined as 50% reduction in the growth rate (or two-fold difference in growth rate) in the antibiotic group based on the distribution of the growth rate of single cells. In particular, we define the threshold value based on the standard derivation of single cell growth and t-statistics (two-tailed, unpaired). In our calibration tests, the standard deviations of the growth rate were below 25% of the mean (in the worst case scenario). In the calculation, the degree of freedom was 8, since at least 5 bacteria were used in each group. A 50% reduction in growth rate is equivalent to a p-value of approximately 0.022.

In data set [2] the test system is S. epidermidis (ATCC 12228). Description: Single cell AST in adaptable microfluidic device. The note with it: for antibiotic response in polymicrobial sample: ampicillin 8 μg/mL, mixed with E. coli EC137 1:1. The format is cell-based.
Description: as §1, §2, §3

Data set [3] concerns E. coli (EC136). The experiment in a line: Single cell AST in adaptable microfluidic device. The format is cell-based. The note with it: ampicillin; EC137 and EC136 mixed 10:1. As for the experimental part:
We further evaluated the capability of the microfluidic system for identifying samples with multiple strains of the same species, which is challenging for genotypic diagnosis. Two strains of E. coli (EC137 and EC136 at a 10:1 ratio) with different antibiotic resistance profiles were tested. EC137 is susceptible to ampicillin while EC136 is resistant to ampicillin. Both strains were trapped in the microchannels at 180 kPa pressure with no spatial separation in the microchannel (FIG. 3F). […] In the antibiotic group, EC136 grew exponentially with ampicillin in the medium, whereas EC137 was lysed by ampicillin. FIG. 3J illustrates the growth curves of EC136 and EC137 in the same test.
E. coli, S. epidermidis, and M. bacteremicum were cultured in Mueller Hinton broth, Nutrient broth, and ATCC medium 1395, respectively. The bacteria were cultured to an optical density at 600 nm (OD600) around 0.2 (measured with Nanodrop 2000, Thermo Scientific) and diluted to 5×10^5 cfu/mL following the CLSI guideline. […] The concentration of oxacillin for S. epidermidis was 4 μg/mL. […] The length of the bacteria occupying the microchannel was measured in ImageJ (imagej.nih.gov/ij/). […] In this embodiment, the antibiotic resistance was determined as 50% reduction in the growth rate (or two-fold difference in growth rate) in the antibiotic group based on the distribution of the growth rate of single cells. […]

Data set [4] has as its system M. bacteremicum (ATCC 25791). The experiment in a line: Single cell AST in adaptable microfluidic device. In kind it is cell-based. The note with it: ciprofloxacin 2 μg/mL; growth/non-growth defined by 50% reduction in growth rate.
Description: as §1, §2, §3

For data set [5], the system named is E. coli EC132. Description: NAME pathogen identification with microfluidic single cell AST. In kind it is cell-based. To be noted: growth in channels with ciprofloxacin. The text has this:
(§4) We integrated pathogen identification and single cell AST by applying a microfluidic confinement technique (FIG. 23A) (18, from which the description of the microfluidic device and technique is incorporated herein by reference). […] In this integrated identification and AST assay, the bacteria were transformed, loaded into the microchannels via capillary flow, and trapped in the channels for phenotypic AST. […] AST was implemented by monitoring the bacterial growth in the channels with and without the presence of antibiotics.
(§5) The bacteria suspension (1 μl) was loaded onto a microscope slide and covered with a cover glass for imaging and counting using a fluorescence microscope (Leica DMI 4000B, objective 40×). The transformation efficiency was estimated by the number of bacteria with an observable fluorescence intensity over the total number of bacteria (bright-field). To conduct AST, the transformed bacteria were loaded onto the microfluidic device by capillary force.

Data set [6] concerns E. coli EC137. The description is as above. The format is cell-based. The note with it: growth in channels with ciprofloxacin.
Description: as §4, §5

Data set [7] has as its system EC137. Description: Testing bacteria resistance with agar pads. The format is cell-based, E. coli. The note with it: with and without ciprofloxacin. The text has this:
FIG. 28. Testing bacteria resistance with agar pads. (A) Schematics of the procedure for creating agar pads for single cell AST. […] Scale bars, 25 μm.

For data set [8], the system named is bacterial 16S rRNA of E. coli. Description: Intracellular 16S rRNA detection with double-stranded probes delivered by NAME. In kind it is cell-based. The text has this: (§6) As discussed above, the present disclosure provides a microwave electroporation approach for transforming molecular probes into viable bacteria for intracellular sensing and pathogen identification (FIG. 24). Multiwall carbon nanotubes, which couple and localize the microwave energy, can enhance the electric field in a manner similar to a lightning rod for microwave electroporation with a minimal effect on the cell viability^(14, 15). To evaluate the feasibility of multiplex single cell pathogen identification using NAME, two molecular probes targeting the species-specific regions of bacterial 16S rRNA of E. coli (EC probe) and P. aeruginosa (PA probe) were designed and transformed into the bacteria (Tables 4-5). The performance of the double-stranded nucleic acid probe was first calibrated for use in homogeneous sensing (FIG. 25). For multiplex detection, the PA probe was labeled with 6-carboxyfluorescein (6-FAM) and the EC probe was labeled with 6-carboxytetramethylrhodamine (6-TAMRA). Uropathogenic E. coli and P. aeruginosa were transformed with both probes for pathogen identification (FIG. 20D).
(§7) Four double-stranded probes were used in this disclosure (Table 4). Each probe contained two DNA strands. The donor strands were 22-24 nucleotides long and complementary to the target RNA of interest^(27, 28). The fluorophores, 6-FAM (Fluorescein) or 6-TAMRA (NHS Ester), were labeled at the 3′ end of the donor strands. The quencher strands were 11-12 nucleotides in length. The dark quenchers, Iowa Black FQ for 6-FAM or Iowa Black RQ for 6-TAMRA, were labeled at the 5′ end of the quencher strands immediately adjacent to the fluorophores on the donor strands. The probes were synthesized by Integrated DNA Technologies (Coralville, IA). Other reagents were purchased from Sigma Inc. (St. Louis, MO) unless otherwise specified. To conduct the assay, the probes were made by mixing the fluorophore and quencher strands in the buffer solution, which contains 10 mM Tris-EDTA with 100 mM NaCl at a 1:3 molar ratio, at 95° C. for 5 minutes. The mixtures were then allowed to cool down to room temperature slowly. The final concentration of the probes in the transformation test was 1.5×10^3 nM.
(§8) Bacteria were grown in Mueller Hinton Broth. To transform the double-stranded probe into bacteria, 100 μl of bacterial sample was centrifuged at 4500 rpm for 5 minutes and washed twice with phosphate buffer (PBS 1×). The multiwall carbon nanotubes that are functionalized with a carboxyl group (COOH) have a diameter of 30±15 nm and a length from 1 to 5 μm (NanoLab, Inc.). The nanotube solution (30 mg/ml) was filtered with a 1 μm microfilter. The pellet was resuspended into 100 μl filtered nanotube solution and incubated for 10 minutes at room temperature. Then, 10 μl molecular probe was added and incubated at room temperature for 10 minutes. The sample was incubated in ice for 5 minutes and then put into a microwave oven (700 W, 2.45 GHz) for 10 seconds. The microwave treated bacteria was incubated at room temperature for 30 minutes and washed 3 times with PBS (1×) to remove the extra probes and resuspended in PBS for imaging.

Data set [9] has as its system bacterial 16S rRNA of P. aeruginosa. Described as above. In kind it is cell-based.
Description: as §6, §7, §8

Consider `CC1(C)S[C@@H]2[C@H](NC(=O)[C@H](N)c3ccccc3)C(=O)N2[C@H]1C(=O)O` [ampicillin], for which the “antibiotic response in polymicrobial sample” value in [1] was “susceptible”; in data set [1] (listed as Ampicillin), “bactericidal effect”; in data set [2], “resistant”; in data set [2] (listed as Ampicillin), “no effect”; in data set [3] it was “resistant”.
In the case of `O=C(O)c1cn(C2CC2)c2cc(N3CCNCC3)c(F)cc2c1=O` [ciprofloxacin], the “antimicrobial susceptibility (growth in microchannel)” value in data set [1] (ciprofloxacin 4 μg/mL, growth/non-growth defined by 50% reduction in growth rate) is “effective”; in data set [4], “effective”. Moreover, the “antimicrobial susceptibility after NAME” value in [5] is reported as “resistant”; in data set [6] it was “susceptible”. The “growth in agar pads” value in data set [7] was “inhibited the growth”.
Take `Cc1onc(-c2ccccc2)c1C(=O)N[C@@H]1C(=O)N2[C@@H]1SC(C)(C)[C@@H]2C(=O)O` [oxacillin]: the “antimicrobial susceptibility (growth in microchannel)” value in data set [2] (oxacillin 4 μg/mL, growth/non-growth defined by 50% reduction in growth rate) is recorded as “completely inhibited the growth”.
For the molecule “EC probe (Red): double-stranded DNA probe for E. coli 16S rRNA; donor SEQ ID 3 with 3′ 6-TAMRA, quencher SEQ ID 4 with 5′ Iowa Black RQ (sense GGTATTAACTTTACTCCCTTCCTC; antisense GAGGAAGGGAGT; sense: 3' {TAMRA}, sugars by position and backbone not given here; antisense: 5' {IBRQ}, sugars by position and backbone not given here)”, the “single cell pathogen identification of clinical isolates” value in data set [8] (isolates from clinical blood and urine samples) is on record as “specifically identified”. Besides, the “fluorescence signal from the probe in the bacteria” value in [8] (samples with E. coli only, both probes transformed) is “clearly observed”. The “fluorescence signal from the probe in the bacteria (non-target probe)” value in data set [9] (P. aeruginosa samples, EC probe) was “not”.
In the case of “PA probe: double-stranded DNA probe for P. aeruginosa 16S rRNA; donor SEQ ID 6 with 3′ 6-FAM, quencher SEQ ID 7 (sense GCTGAACCACCTACGCGCGCTTT; antisense AAAGCGCGCGTA; sense: 3' {FAM}, sugars by position and backbone not given here; antisense: 5' {IBFQ}, sugars by position and backbone not given here)”, in data set [8] (samples with E. coli only, PA probe), the “fluorescence signal from the probe in the bacteria (non-target probe)” value is “not observable”. In addition, the “fluorescence signal from the probe in the bacteria” value in data set [9] (P. aeruginosa samples, both probes transformed) is reported as “high fluorescence signal”. Moreover, the “single cell pathogen identification of clinical isolates” value in [9] (isolates from clinical urine samples) is reported as “specifically identified”.
